Here are results for two molecules from patent US6410600B1, “Azine used as fungicides” (Bayer Aktiengesellschaft, priority 1998, dated 2002).

Series [1] is described as follows: logP determination by HPLC (EEC direction 79/831 Annex V. A8). In kind it is physicochemical. As to conditions: eluent not stated.
Series [2] deals with Plasmopara viticola. As to the kind of experiment: Plasmopara Test (grapevine)/Protective. As to conditions: protective, application rate 100 g/ha, evaluation 6 days after inoculation. In kind it is in vivo. The protocol: Plasmopara Test (grapevine)/Protective
(§1) To produce a suitable preparation of active compound, 1 part by weight of active compound is mixed with the stated amounts of solvent and emulsifier, and the concentrate is diluted with water to the desired concentration.
To test for protective activity, young plants are sprayed with the preparation of active compound at the stated application rate. After the spray coating has dried on, the plants are inoculated with an aqueous spore suspension of Plasmopara viticola and then remain in an incubation cabin at approximately 20° C. and 100% relative atmospheric humidity for 1 day. The plants are then placed in a greenhouse at approximately 21° C. and approximately 90% relative atmospheric humidity. The plants are then moistened and placed in an incubation cabin for 1 day.
Evaluation is carried out 6 days after the inoculation. 0% means an efficacy which corresponds to that of the control, whereas an efficacy of 100% means that no infection is observed.

Series [3] relates to Sphaerotheca fuliginea. Briefly: Sphaerotheca Test (cucumber)/Protective. In kind it is in vivo. The conditions noted are these: protective, application rate 100 g/ha, evaluation 10 days after inoculation. The protocol:
Sphaerotheca Test (cucumber)/Protective
as §1
To test for protective activity, young plants are sprayed with the preparation of active compound at the stated application rate. After the spray coating has dried on, the plants are inoculated with an aqueous spore suspension of Sphaerotheca fuliginea. The plants are then placed in a greenhouse at approximately 23° C. and a relative atmospheric humidity of approximately 70%.
Evaluation is carried out 10 days after the inoculation. 0% means an efficacy which corresponds to that of the control, whereas an efficacy of 100% means that no infection is observed.

The subject of series [4] is Venturia inaequalis. As to the kind of experiment: Venturia Test (apple)/Protective. In kind it is in vivo. The conditions noted are these: protective, application rate 10 g/ha, evaluation 12 days after inoculation. The protocol:
Venturia Test (apple)/Protective
as §1
To test for protective activity, young plants are sprayed with the preparation of active compound at the stated application rate. After the spray coating has dried on, the plants are inoculated with an aqueous conidia suspension of the causative organism of apple scab Venturia inaequalis and then remain in an incubation cabin at approximately 20° C. and 100% relative atmospheric humidity for 1 day.
The plants are then placed in a greenhouse at approximately 21° C. and a relative atmospheric humidity of approximately 90%.
Evaluation is carried out 12 days after the inoculation. 0% means an efficacy which corresponds to that of the control, whereas an efficacy of 100% means that no infection is observed.

With `CO/N=C(\C)C(C)=NN` [3-hydrazono-butan-2-one O-methyl oxime], in series [1], the chromatographic logP was 0.97.

Take `COC(=O)/C=C(/OC)c1ccccc1C=NN=C(C)c1cccc(C(F)(F)F)c1` [Example 1, methyl 3-methoxy-3-(2-{[1-(3-trifluoromethylphenyl)-ethylidene]-hydrazonomethyl}-phenyl)-acrylate]: the efficacy result is listed as “more than 80%” in series [2], “more than 80%” in series [3] and “more than 90%” in series [4]. In series [1], this molecule displayed a chromatographic logP of 4.4.
